Data on eight substances can be found in US20150079168A1 (Keryx Biopharmaceuticals, Inc., priority 2012, published 2015).

A short description of one data set: BET active surface area. Format: physicochemical. From the text:
BET theory explains the physical adsorption of gas molecules onto a solid surface. The theory serves as the basis for the measurement of the specific surface area of a material. This theory allows the calculation of surface areas of materials in a very accurate manner and is thus capable of distinguishing differences between separate preparations of what would otherwise appear to be the same material. For example, activated carbon is a form of carbon that has been processed to make it extremely porous and thus to have a very large surface area. Activated carbon has been experimentally determined, using calculations derived from BET theory, to have a surface area of around 3000 m^2 g^−1.

Data set [1] relates to patients with end-stage renal disease (ESRD) on dialysis. Kind of data set: Three-period trial of ferric citrate as phosphate binder: 52-week randomized, open-label, active control Safety Assessment Period. It counts as in vivo, human. The protocol:
This trial was a three-period, multicenter, safety and efficacy clinical trial.
Patients were followed on their randomized assignment for safety assessments over 52 weeks.
Calcium acetate 667 mg capsules and sevelamer carbonate 800 mg tablets were used and were supplied by Keryx Biopharmaceuticals, Inc. (Keryx) for the duration of the trial.
Serum phosphorus and calcium were checked at Visit 5 (Week 1), and every two weeks during the first 12 weeks after Visit 4 (Randomization Visit), and monthly for the rest of the Safety Assessment Period. During the Efficacy Assessment Period, serum phosphorus and calcium were drawn weekly. These values guided study drug administration. While on study drug, the use of other phosphate binders was not permitted. […] The titration of calcium acetate and sevelamer carbonate throughout the 52-week Safety Assessment Period were according to the current package inserts for these agents and/or at the discretion of the site PI.
Patients took study drug orally with or within one hour of meals or snacks. […] The PI or designee at each site dispensed the study drug to the patient and instructed the patient on how to administer it. It was recognized that some patients required a different distribution in pills in a given day due to snacks or missed meals.
Serum phosphorus and calcium were performed at Screening (Visit 0); weekly during the Washout Period after Visit 1 (Week −2); at Visit 4 (Randomization Visit); at Visits 5 (Week 1), 6 (Week 2), 7 (Week 4), 8 (Week 6), 9 (Week 8), 10 (Week 10), 11 (Week 12), 12 (Week 16), 13 (Week 20), 14 (Week 24), 15 (Week 28), 16 (Week 32), 17 (Week 36), 18 (Week 40), 19 (Week 44), 20 (Week 48), and 21 (Week 52) of the 52-week Safety Assessment Period; and at Visits 22 (Week 53), 23 (Week 54), 24 (Week 55) and 25 (Week 56) of the Efficacy Assessment Period. […]
The efficacy analyses were based on Full Analysis (FA) population that consisted of all patients who took at least one dose of study medication and provided baseline and at least one post-baseline efficacy assessment. The safety analyses were based on safety population that was consistent of all patients who took at least one dose of study medication.
There were two unique and distinct baseline assessments. The baseline for the Safety Assessment Period was the Randomization Visit (Visit 4) and was defined as “Week-0-baseline.” The baseline for the Efficacy Assessment Period was the last visit of the Safety Assessment Period (Visit 21. Week 52) and was defined as “study-baseline.”

The mark [2] stands for this setting: Week 12, ANCOVA, Day-0 baseline covariate.

Like-named read-outs stand apart in the source and are kept apart here.

In the case of ferric citrate [STM-134-1], the “BET Active Surface Area” value in the data set “BET active surface area” (Table 1, unit not given) is recorded as 16.17.
Take ferric citrate [Batch No. 35106]: the “BET Active Surface Area” value in the data set “BET active surface area” came out at 28.5 m^2/g.
Same read-out and setting: in the case of ferric citrate [Batch No. 35105] it was 31.5 m^2/g.
As to ferric citrate [RFS-12-1], the “BET Active Surface Area” value is on record as 0.61 m^2/g in “BET active surface area” and 0.61 in “BET active surface area” (Table 1, unit not given).
As to ferric citrate [Batch No. 35102], in “BET active surface area”, the “BET Active Surface Area” value amounted to 30.6 m^2/g.
In the case of ferric citrate [STM-182-1], in the data set “BET active surface area” (Table 1, unit not given), the “BET Active Surface Area” value came to 19.85.
Take ferric citrate [Batch No. 35103]: the “BET Active Surface Area” value in the data set “BET active surface area” was 29.1 m^2/g.
For the substance sevelamer carbonate, in data set [1] (Baseline), the “Calcium, Mean (SD)” value was 9.056 (0.7291) MG/DL; the “Calcium, Median” value stood at 9.150 mg/dL; the “Product Of Calcium And Phosphorus, Mean (SD)” value is 68.0872 (16.29); the “Product Of Calcium And Phosphorus, Median” value turned out to be 66.2700. Besides, in data set [1] (Baseline (Table 12)), the “Phosphorus, Mean (SD)” value is listed as 7.51 (1.633) MG/DL and the “Phosphorus, Median” value amounted to 7.40 mg/dL. In addition, in data set [1] (Week 12), the “Calcium, Change from Baseline, Mean (SD)” value is 0.175 (0.7509) MG/DL; the “Calcium, Change from Baseline, Median” value is 0.100 mg/dL; the “Calcium, Mean (SD)” value is recorded as 9.231 (0.7210) MG/DL; the “Calcium, Median” value came to 9.400 mg/dL. For the same substance, in data set [1] (Week 12), the “Product Of Calcium And Phosphorus, Change from Baseline, Mean (SD)” value is on record as −20.0621 (19.17); the “Product Of Calcium And Phosphorus, Change from Baseline, Median” value is on record as −19.8500; the “Product Of Calcium And Phosphorus, Mean (SD)” value was 48.0251 (14.37); the “Product Of Calcium And Phosphorus, Median” value worked out at 46.2800. In data set [1] (Week 12 (Table 12)), the “Phosphorus, Change from Baseline, Mean (SD)” value was −2.28 (2.169) MG/DL; the “Phosphorus, Change from Baseline, Median” value is -2.45 mg/dL; the “Phosphorus, Mean (SD)” value is reported as 5.23 (1.713) MG/DL; the “Phosphorus, Median” value is 5.00 mg/dL. Moreover, in data set [1] (setting [2]), the “Calcium, LS Mean (SE)” value was 9.15 (0.08) MG/DL and the “Product Of Calcium And Phosphorus, LS Mean (SE)” value is recorded as 47.52 (1.50). For the same substance, in data set [1] (Week 12, ANCOVA, Day-0 baseline covariate (Table 12)), the “Phosphorus, LS Mean (SE)” value is 5.22 (0.17) MG/DL.
